Assay results taken from patent US9724309B2, “Film-form preparation and method for producing the same” (NITTO DENKO CORPORATION, priority 2010, dated 2017).

Assay: Particle size of drug particles by electron microscope
Type: physicochemical
Details: 200 particles
Experimental: The various drug particles used in the Examples and Comparative Examples were obtained passing the powder through a 32 μm, 53 μm, 90 μm sieve after pulverization, or obtained fine particles by a jet mill (product of Hosokawa Micron Group, spiral jet mill model 50AS) or a spray dryer (product of Büchi Labortechnik AG, mini spray dryer model B-290) after pulverization. The particle sizes of these drug particles were measured by electron microscope (product of Hitachi High-Technologies Corp., model TM-1000) and the 50 vol % average particle size was calculated from the measurement results of 200 particles. This value was used as the particle size index of the particles.

| SMILES | 50 vol % average particle size |
| --- | --- |
| COc1cc(S(=O)(=O)[O-])ccc1O.O.[K+] [Potassium guaiacolsulfonate particles C, Potassium guaiacolsulfonate] | 80.4 um |
| COc1cc(S(=O)(=O)[O-])ccc1O.O.[K+] [Potassium guaiacolsulfonate particles B, Potassium guaiacolsulfonate] | 40.4 um |
| COc1cc(S(=O)(=O)[O-])ccc1O.O.[K+] [Potassium guaiacolsulfonate particles A, Potassium guaiacolsulfonate] | 2.1 um |
| Cn1c(=O)c2[nH]cnc2n(C)c1=O [Aminophyllin particles, Aminophyllin] | 4.3 um |
| COc1cc(S(=O)(=O)[O-])ccc1O.O.[K+] [Potassium guaiacolsulfonate particles, Potassium guaiacolsulfonate] | 5.0 um |
| N[C@@H](CCC(=O)N[C@@H](CS)C(=O)NCC(=O)O)C(=O)O [Glutathione (reduced form) particles, Glutathione (reduced form)] | 5.3 um |
